Measured values: the NIST ThermoML archive (doi:10.1016/j.jct.2008.09.021)
Numbers after ± are expanded uncertainties.

What was measured:
[1] = refractive index (Na D-line) (dimensionless); settings: 298.15 K; 101.33 kPa; Liquid; Standard Abbe refractometry
[2] = Liquid; for mass density: 303.15 K, 101.33 kPa, Pycnometric method; for vapor or sublimation pressure: Ebulliometric method (Recirculating still)

SMILES | refractive index [1] | mass density [2] [kg/m3] | vapor or sublimation pressure ([2]; 379.35 K) [kPa] | vapor or sublimation pressure ([2]; 353.95 K) [kPa] | vapor or sublimation pressure ([2]; 401.85 K) [kPa] | vapor or sublimation pressure ([2]; 473.25 K) [kPa] | vapor or sublimation pressure ([2]; 371.05 K) [kPa] | vapor or sublimation pressure ([2]; 353.85 K) [kPa]
CC(C)CO [2-methyl-1-propanol] | 1.3939 ± 0.0013 | 794.34 ± 4.6 | 95.3 ± 2 | – | – | – | – | –
CC(C)(C)O [2-methylpropan-2-ol] | 1.3851 ± 0.0013 | 776.16 ± 4.4 | – | 95.3 ± 2 | – | – | – | –
CC(C)CCO [3-methylbutan-1-ol] | 1.4053 ± 0.0013 | 801.76 ± 4.7 | – | – | 95.3 ± 2 | – | – | –
CN1CCCC1=O [N-methylpyrrolidone] | 1.4674 ± 0.0008 | 1023.4 ± 0.61 | – | – | – | 95.3 ± 1.9 | – | –
CCC(C)O (stereo not drawn) [butan-2-ol] | 1.3954 ± 0.0013 | 798.92 ± 4.7 | – | – | – | – | 95.3 ± 2 | –
CC(C)O [propan-2-ol] | 1.375 ± 0.0013 | 776.88 ± 4.4 | – | – | – | – | – | 95.3 ± 2
